Measured values reported in the supplement of paper PMC10307832.

Assays:
Test in all cases: relative viability (nuclei count vs DMSO), 5 days (fraction); higher = more cells survive
[1] = compound: CCn1c(-c2nonc2N)nc2c(C#CC(C)(C)O)ncc(OC[C@H]3CCCNC3)c21 + CC(C)C[C@H](NC(=O)[C@H](Cc1ccccc1)NC(=O)c1cnccn1)B(O)O [Bortezomib] (partner 0.002 µM)
Method in brief: (§1)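 Relative viability is defined as nuclei in treated wells over nuclei in vehicle wells. Duplicate plates were run and medians reported. Lung cancer cell lines in 1536-well plates were dosed by pin tool one day after seeding, with one drug or with a fixed anchor-drug dose plus five library-drug doses (not always all listed) in √10 steps, and nuclei were counted after 5 days.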

[2] = compound: CCn1c(-c2nonc2N)nc2c(C#CC(C)(C)O)ncc(OC[C@H]3CCCNC3)c21 + C[C@]1(O)C[C@@H](c2nc(-c3ccc4ccc(-c5ccccc5)nc4c3)c3c(N)nccn32)C1 [Linsitinib] (partner 1 µM)
Method in brief: as §1

BAM7 + Olaparib = compound: CCOC1=CC=CC=C1N=NC2=C(NN(C2=O)C3=NC(=CS3)C4=CC=CC=C4)C [BAM7] + O=C(c1cc(Cc2n[nH]c(=O)c3ccccc23)ccc1F)N1CCN(C(=O)C2CC2)CC1 [Olaparib] (partner 8 µM)
Method in brief: as §1

BAM7 + Alpelisib = compound: CCOC1=CC=CC=C1N=NC2=C(NN(C2=O)C3=NC(=CS3)C4=CC=CC=C4)C [BAM7] + Cc1nc(NC(=O)N2CCC[C@H]2C(N)=O)sc1-c1ccnc(C(C)(C)C(F)(F)F)c1 [Alpelisib] (partner 2 µM)
Method in brief: as §1

Row | Cell Line | relative viability ([1]; first compound 0.01 µM) | relative viability ([1]; first compound 0.03162 µM) | relative viability ([1]; first compound 0.1 µM) | relative viability ([1]; first compound 0.3162 µM) | relative viability ([1]; first compound 1 µM) | relative viability ([2]; first compound 0.01 µM) | relative viability ([2]; first compound 0.03162 µM) | relative viability ([2]; first compound 0.1 µM) | relative viability ([2]; first compound 0.3162 µM) | relative viability ([2]; first compound 1 µM) | relative viability (BAM7 + Olaparib; first compound 0.5 µM) | relative viability (BAM7 + Olaparib; first compound 5 µM) | relative viability (BAM7 + Olaparib; first compound 15.81 µM) | relative viability (BAM7 + Olaparib; first compound 50 µM) | relative viability (BAM7 + Alpelisib; first compound 0.5 µM) | relative viability (BAM7 + Alpelisib; first compound 5 µM) | relative viability (BAM7 + Alpelisib; first compound 15.81 µM) | relative viability (BAM7 + Alpelisib; first compound 50 µM)
1 | NCI-H1734 | 0.872 | 0.965 | 0.875 | 0.344 | 0.648 | 0.872 | 0.879 | 0.782 | 0.817 | 0.884 | 0.57 | 0.664 | 0.599 | 0.609 | 0.74 | 0.804 | 0.638 | 0.676
2 | LXF-289 | 1 | 0.963 | 1 | 0.976 | 1.02 | 0.971 | 0.945 | 0.96 | 0.882 | 0.951 | 1.17 | 1.05 | 1.02 | 1.09 | 1.1 | 1.11 | 1.02 | 1.07
3 | H3255 | 0.634 | 0.679 | 0.83 | 0.788 | 0.688 | 0.958 | 1.09 | 0.903 | 0.888 | 0.843 | 0.597 | 0.666 | 0.417 | 0.405 | 0.691 | 0.673 | 0.649 | 0.734
4 | 201T | 1.1 | 1.14 | 1.1 | 1.07 | 1.09 | 1.05 | 1.1 | 0.986 | 1.03 | 1.02 | 0.774 | 0.746 | 0.691 | 0.765 | 1.05 | 1.05 | 0.825 | 1.01
5 | NCI-H2126 | 1.05 | 1.13 | 1.08 | 1.09 | 1.1 | 0.751 | 0.716 | 0.695 | 0.671 | 0.788 | 0.892 | 0.877 | 0.905 | 0.92 | 0.703 | 0.677 | 0.606 | 0.704
6 | HOP-62 | 0.623 | 0.615 | 0.803 | 0.376 | 0.922 | 1.07 | 0.942 | 1.03 | 0.921 | 0.878 | 0.517 | 0.33 | 0.449 | 0.518 | 0.921 | 0.826 | 0.901 | 0.797
7 | CAL-12T | 0.939 | 0.852 | 1.08 | 1.16 | 1.1 | 0.878 | 0.784 | 0.819 | 0.802 | 0.715 | 0.764 | 0.653 | 0.652 | 0.711 | 1.21 | 1.19 | 1 | 1.39
8 | NCI-H520 | 0.79 | 0.887 | 0.529 | 0.249 | 0.399 | 1.03 | 1.07 | 0.849 | 0.795 | 0.674 | 0.401 | 0.432 | 0.342 | 0.344 | 1.03 | 1.01 | 0.947 | 0.865
9 | NCI-H1755 | 0.956 | 0.917 | 0.939 | 0.923 | 0.906 | 1.04 | 1.02 | 1 | 0.954 | 1.01 | 0.858 | 0.939 | 0.858 | 0.899 | 0.994 | 0.982 | 0.902 | 0.948
